pEC50, pKi: −log10 of the molar value.
Key:
hM4Di = molecular target: T1, hM4Di (Homo sapiens, UniProt P08173, A203G/Y113C); experiment: FLIPR Ca2+ oscillation assay in primary rat neuronal cultures transduced with hM4Di; assay type: cell-based
T1 construct: expressed in transfected cells; host or cells: primary cortical neurons of embryonic (E18) Sprague-Dawley rats, AAV-transduced
T1 sequence (P08173 1-479 Y113C/A203G): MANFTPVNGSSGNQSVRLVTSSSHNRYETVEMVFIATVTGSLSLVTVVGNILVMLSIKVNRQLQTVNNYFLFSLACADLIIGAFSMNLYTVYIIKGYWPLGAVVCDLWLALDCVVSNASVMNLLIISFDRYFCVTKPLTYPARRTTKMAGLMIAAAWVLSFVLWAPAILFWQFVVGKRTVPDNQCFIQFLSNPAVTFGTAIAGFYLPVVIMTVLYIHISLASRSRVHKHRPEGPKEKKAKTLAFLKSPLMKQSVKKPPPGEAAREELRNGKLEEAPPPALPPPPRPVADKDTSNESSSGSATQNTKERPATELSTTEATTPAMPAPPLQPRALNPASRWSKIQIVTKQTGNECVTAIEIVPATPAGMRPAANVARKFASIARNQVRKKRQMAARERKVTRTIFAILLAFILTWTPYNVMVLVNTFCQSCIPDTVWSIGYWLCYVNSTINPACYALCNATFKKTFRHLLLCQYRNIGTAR
Description: Briefly, cortices were dissected from embryonic brains, meninges were removed, and cortices transferred into ice-cold dissociation buffer (2 mM kynurenic acid, 10 mM HEPES, 20 mM MgCl2 (Fluka, Germany) and 33.4 mM Glucose in Hank’s Balanced Salt Solution (HBSS), pH 7.4 (Gibco, Thermo Fischer Scientific, Massachusetts, USA). Cortices were then dissociated in 20 units/ml papain solution (5.5 mM L- Cysteine hydrochloride, 1.1 mM ethylenediamine tetra-acetic acid [EDTA], 0.067 mM 2-Mercaptoethanol in Minimum Essential Medium [MEM]) for 15 min at 37 °C. Cortices were washed twice by adding 20 ml plating medium (1:50 foetal calve serum, 1:100 penicillin/streptomycin and 1:100 GlutaMax in MEM) followed by cell filtration using a 70 µm cell strainer (Corning, model #352350, Merck, Germany) to obtain a single-cell suspension. Dissociated cells were re-suspended in serum-free Neurobasal medium with Glutamax and B27 supplement (Gibco) and plated on PDL-coated 96 MTPs (Corning #356640). Virus (ssAAV-1/2-hSyn1-hM4D[Gi]_mCherry-WPRE-hGHp[A]) transduction was performed immediately after plating. Cells were maintained at 37 °C (5% CO2 and 10% O2) in a humidified incubator. A half feed medium change was done on DIV8. Final assay conditions used for evaluating activity of compounds were 0.95 × 10^5 cells/cm^2, transduced with 10.000 multiplicity of infection and measured on DIV9.
Medium was removed and cells were incubated in assay buffer (HBSS, Gibco, 10 mM HEPES, pH 7.4) containing 4 µM Fluo-4AM (Thermo Fischer Scientific) and 0.1% Pluronic F-127 (Thermo Fischer Scientific #P3000MP) for 1 h at room temperature in the dark. Loading buffer was then replaced with assay buffer. After 10 min, assay plates were measured in the FLIPR tetra (Molecular Devices, California, USA) using green fluorescence filter settings (excitation 470–495 nm, emission 515–575 nm). Fluorescence signals were recorded at 1 s intervals (0.4 s exposure time). Compound addition was automated in a single addition protocol. Tested compounds (concentrations:0.3 nM–1 µM; retigabine at 30 µM) were added after recording a baseline response for 5 min followed by another 5 min for recording compound effects on Ca^2+ oscillations. Each compound dose was repeated on three individual plates in duplicates.
Time-series raw fluorescence traces recorded from the FLIPR assay were analysed by detecting Ca^2+ peaks based on a fixed amplitude threshold[19]. The change in oscillation frequency was determined by counting the number of peaks in a defined time interval (5 min) before and after addition of the tested compound and calculating the Ca^2+ oscillations frequency from their number. […] For visualisation, all data were transferred to GraphPad Prism 7 (Graphpad Software, Inc., CA, USA).

[1] = molecular target: human M4 muscarinic receptor (Homo sapiens, UniProt P08173); experiment: Potency at parent receptor of hM4Di; assay type: cell-based; settings: data not shown
C57BL/6 J mice = experiment: 5-choice serial-reaction-time task (5-CSRTT), unspecific behavioural effects; assay type: in vivo
Description: Training was performed in 16 standard mouse Bussey-Saksida touchscreen chambers (model #80614, Campden Instruments Ltd., UK), previously described in detail. In short, each trapezoidal operant chamber was placed in a sound- and light- attenuating box individually equipped with a house light, a reward magazine with light, a liquid reward dispenser, a sound generator, a perforated stainless steel floor, and a touchscreen placed at the wide end of the chamber and covered permanently by a black acrylic glass 5-hole mask. The reward magazine, located opposite the touchscreen, was connected to a liquid dispenser delivering strawberry milk (Yazoo®). Infrared break-beam sensors located inside and on the front of the food magazine as well as on the touch-screen walls allowed the detection of reward delivery and the animal’s locomotor activity, respectively. Four individual chambers were connected to one computer for controlling the task flow using the graphical task design software ABET II Touch (model #89505, Campden Instruments Ltd., UK) and the WhiskerServer software (Cambridge University Technical Services Ltd., UK)[27].
Mice were habituated to the chambers for three consecutive 20-min sessions during which the house light and magazine light were permanently on. At the start of each session, 30 µl strawberry milk was delivered. Every 15 s after head entry into the magazine, an additional 30 µl strawberry milk was delivered. Head entry turned the magazine light off.
The 5-CSRTT training protocol, originally designed for rats[28], was similar as that previously described for mice[29]–[31]. The training comprised six stages with 30-min sessions initiated by the illumination of the house and magazine lights and delivery of 20 µl strawberry milk. Collection of the reward switched the magazine light off and started the first trial.
In the first stage, the middle window was permanently illuminated, which was turned off when touched, followed by reward delivery (20 µl) with illumination of the magazine light. Head entry switched off the magazine light. Mice performing 30 trials in a session continued to the next stage. Training sessions in stages 2–6 comprised a maximum of 120 trials. Collection of the reward initiated the inter-trial interval (ITI) followed by the illumination of one pseudo-randomly selected aperture for a fixed stimulus duration (SD). Any touch to the screen during the ITI was classified as a premature response which was not counted as a trial and terminated the current trial. Following stimulus detection, a nose poke to the corresponding aperture within a fixed time interval (limited hold; LH) was required for reward delivery. Premature responses made during the ITI, incorrect responses, and the omission of a response within the LH led to a timeout (TO, house light switched off for 4 s) instead of delivery of reward. Correct, incorrect and omitted responses defined the total number of trials. […] The criteria to pass the last stage and reach baseline performance were to complete >30 correct trials, with ≥80% accuracy and ≤30% omissions. Percentage accuracy was defined as the number of correct trials divided by the sum of correct and incorrect trials. Percentage omissions were calculated in terms of the number of completed trials. Premature responding was calculated as a percentage of completed trials. Perseveration was calculated as the number of additional responses made in the same aperture following a correct response. Additionally, the correct-response latency (time from stimulus presentation to correct response) and reward latency (time from correct response to reward collection) were measured across all trials.
Either one or up to three days before, as well as one day after the task challenge, mice were trained at baseline conditions to check for any unexpected changes in task performance (e.g. by long lasting drug- or challenge-induced effects). […]

D2 dopamine receptor = molecular target: T2, D2 dopamine receptor (Homo sapiens, UniProt P14416); experiment: Off-target radioligand binding; settings: 10 μM compound
T2 construct: expressed in transfected cells; host or cells: HEK-293 or CHO

M1 muscarinic receptor = molecular target: T3, M1 muscarinic receptor (Homo sapiens, UniProt P11229); experiment: Off-target radioligand binding; settings: 10 μM compound
T3 construct: expressed in transfected cells; host or cells: HEK-293 or CHO

M2 muscarinic receptor = molecular target: T4, M2 muscarinic receptor (Homo sapiens, UniProt P08172); experiment: Off-target radioligand binding; settings: 10 μM compound
T4 construct: expressed in transfected cells; host or cells: HEK-293 or CHO

M3 muscarinic receptor = molecular target: T5, M3 muscarinic receptor (Homo sapiens, UniProt P20309); experiment: Off-target radioligand binding; settings: 10 μM compound
T5 construct: expressed in transfected cells; host or cells: HEK-293 or CHO

[2] = molecular target: T6, 5-HT2B serotonin receptor (Homo sapiens, UniProt P41595); experiment: Off-target radioligand binding
T6 construct: expressed in transfected cells; host or cells: HEK-293 or CHO

COX1 = COX1 (Homo sapiens, UniProt P23219); experiment: Off-target enzyme assay; assay type: biochemical; settings: 10 μM compound, not shown
COX2 = COX2 (Homo sapiens, UniProt P35354); experiment: Off-target enzyme assay; assay type: biochemical; settings: 10 μM compound, not shown
PDE3A = PDE3A (Homo sapiens, UniProt Q14432); experiment: Off-target enzyme assay; assay type: biochemical; settings: 10 μM compound, not shown
PDE4D2 = PDE4D2 (Homo sapiens, UniProt Q08499); experiment: Off-target enzyme assay; assay type: biochemical; settings: 10 μM compound, not shown
AChE = AChE (Homo sapiens, UniProt P22303); settings: 10 μM compound, not shown
[3] = Pharmacokinetics in plasma, CSF and cortical brain tissue after i.p. injection; settings: mice; for mean concentration in brain: cortical tissue
Description: Blood (approximately 100 µl) was collected from the vena facialis in anaesthetised animals, followed by CSF sampling (approximately 10 µl) from the cisterna magna under pentobarbital anaesthesia (1:25 in saline, 10 ml/kg, i.p., Narcoren, Boehringer Ingelheim, Germany). Subsequently, the brain was removed and its anterior third (including the medial prefrontal and anterior cingulate cortices) dissected and transferred into Precellys tubes cooled in liquid nitrogen. For plasma extraction, blood was transferred to EDTA coated tubes and centrifuged for 10 min at 10,000 rpm at 4 °C. Maximal plasma concentration (Cmax), time taken to reach maximal plasma concentration (Tmax) and mean residence time were assessed using liquid chromatography–mass spectrometry analysis executed on the HP1200 (Agilent, CA, USA) coupled to the API 6500 (AB Sciex, Germany) using BI00001052 (Boehringer Ingelheim) as internal standard. In short, 5 µl of plasma or CSF sample were mixed with 10 nl internal standard. 70 µl acetonitrile (ACN)/methanol (1:1) was added, kept at −20 °C for 15 min and centrifuged for 4 min at 4000 rpm at 4 °C. 30 µl of the supernatant was mixed with 170 µl 0.1% formic acid. Brain homogenization was executed by Precellys Evolution (Bertin) after adding ACN/methanol (1:1)/aq.dest. (3:1) to each brain sample with a volume corresponding to 4 parts of the brain weight, followed by centrifugation for 1 min at 4000 rpm at 4 °C. 5 µl of the supernatant was mixed with 10 nl of internal standard.

[4] = 15 min after i.p. 3.5 mg/kg CNO
[5] = 30 min after i.p. 3.5 mg/kg CNO
[6] = 60 min after i.p. 3.5 mg/kg CNO

T6 sequence (P41595 whole entry): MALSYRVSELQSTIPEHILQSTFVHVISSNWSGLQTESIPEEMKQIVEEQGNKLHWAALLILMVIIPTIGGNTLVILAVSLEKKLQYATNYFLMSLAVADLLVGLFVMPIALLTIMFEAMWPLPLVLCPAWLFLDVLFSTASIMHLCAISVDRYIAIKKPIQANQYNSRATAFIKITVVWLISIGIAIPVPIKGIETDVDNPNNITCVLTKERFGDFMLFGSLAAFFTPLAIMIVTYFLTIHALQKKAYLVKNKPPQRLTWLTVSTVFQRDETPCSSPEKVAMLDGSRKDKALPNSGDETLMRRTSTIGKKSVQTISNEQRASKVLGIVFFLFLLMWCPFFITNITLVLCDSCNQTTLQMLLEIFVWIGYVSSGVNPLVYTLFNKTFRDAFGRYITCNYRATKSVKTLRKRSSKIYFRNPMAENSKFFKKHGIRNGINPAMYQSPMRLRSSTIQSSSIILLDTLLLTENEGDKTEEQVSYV
human M4 muscarinic receptor, sequence (P08173 whole entry): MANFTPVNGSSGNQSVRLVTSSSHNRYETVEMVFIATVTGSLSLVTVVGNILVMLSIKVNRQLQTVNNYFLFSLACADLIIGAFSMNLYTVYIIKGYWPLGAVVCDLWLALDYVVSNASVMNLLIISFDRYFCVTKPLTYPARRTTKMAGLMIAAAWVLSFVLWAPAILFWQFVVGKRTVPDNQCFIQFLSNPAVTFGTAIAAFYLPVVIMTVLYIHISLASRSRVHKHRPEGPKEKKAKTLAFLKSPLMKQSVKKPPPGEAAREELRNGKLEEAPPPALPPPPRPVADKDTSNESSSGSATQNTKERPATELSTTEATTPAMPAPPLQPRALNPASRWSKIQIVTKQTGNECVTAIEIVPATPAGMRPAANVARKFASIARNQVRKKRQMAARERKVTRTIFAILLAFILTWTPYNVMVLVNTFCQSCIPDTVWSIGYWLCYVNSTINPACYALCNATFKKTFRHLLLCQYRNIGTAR
COX1, sequence (P23219 24-599): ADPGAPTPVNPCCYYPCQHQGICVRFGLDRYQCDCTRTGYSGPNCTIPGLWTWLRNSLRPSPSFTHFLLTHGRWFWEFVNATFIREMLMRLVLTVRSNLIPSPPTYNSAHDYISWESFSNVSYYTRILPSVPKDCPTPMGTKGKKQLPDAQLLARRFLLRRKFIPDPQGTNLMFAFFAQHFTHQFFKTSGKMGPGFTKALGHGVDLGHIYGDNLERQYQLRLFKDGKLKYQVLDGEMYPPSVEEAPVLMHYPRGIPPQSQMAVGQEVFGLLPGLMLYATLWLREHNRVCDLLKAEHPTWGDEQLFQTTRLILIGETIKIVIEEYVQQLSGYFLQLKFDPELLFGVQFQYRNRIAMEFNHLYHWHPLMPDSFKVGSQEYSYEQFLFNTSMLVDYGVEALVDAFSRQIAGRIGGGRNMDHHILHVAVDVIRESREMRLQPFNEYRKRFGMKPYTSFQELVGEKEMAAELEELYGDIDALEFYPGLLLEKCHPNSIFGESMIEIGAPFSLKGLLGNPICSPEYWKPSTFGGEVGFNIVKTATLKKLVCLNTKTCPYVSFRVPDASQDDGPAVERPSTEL
T2 sequence (P14416 1-414 isoform P14416-2): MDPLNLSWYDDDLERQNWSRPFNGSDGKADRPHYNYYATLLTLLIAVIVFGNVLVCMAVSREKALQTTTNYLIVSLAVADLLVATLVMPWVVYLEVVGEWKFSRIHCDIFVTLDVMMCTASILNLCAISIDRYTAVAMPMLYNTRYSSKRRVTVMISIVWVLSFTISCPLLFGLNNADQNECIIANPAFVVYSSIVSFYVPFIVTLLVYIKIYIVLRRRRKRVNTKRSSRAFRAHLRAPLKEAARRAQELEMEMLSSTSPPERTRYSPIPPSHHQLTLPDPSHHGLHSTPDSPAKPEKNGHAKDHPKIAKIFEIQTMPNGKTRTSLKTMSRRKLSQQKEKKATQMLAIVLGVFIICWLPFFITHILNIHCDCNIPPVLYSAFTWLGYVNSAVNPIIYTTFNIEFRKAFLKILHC
T3 sequence (P11229 whole entry): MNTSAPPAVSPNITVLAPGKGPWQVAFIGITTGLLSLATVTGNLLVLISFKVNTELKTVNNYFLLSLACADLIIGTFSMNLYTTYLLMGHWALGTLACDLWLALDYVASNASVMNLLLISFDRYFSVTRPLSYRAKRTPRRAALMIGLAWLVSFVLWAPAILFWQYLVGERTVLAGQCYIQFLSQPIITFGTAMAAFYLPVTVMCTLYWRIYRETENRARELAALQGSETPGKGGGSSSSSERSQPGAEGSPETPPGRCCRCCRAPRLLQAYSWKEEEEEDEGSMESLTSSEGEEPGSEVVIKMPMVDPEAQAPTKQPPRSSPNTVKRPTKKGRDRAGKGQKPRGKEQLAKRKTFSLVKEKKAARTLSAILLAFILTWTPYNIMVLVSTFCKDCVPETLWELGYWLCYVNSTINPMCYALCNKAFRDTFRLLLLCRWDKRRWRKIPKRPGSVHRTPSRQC
COX2, sequence (P35354 18-604): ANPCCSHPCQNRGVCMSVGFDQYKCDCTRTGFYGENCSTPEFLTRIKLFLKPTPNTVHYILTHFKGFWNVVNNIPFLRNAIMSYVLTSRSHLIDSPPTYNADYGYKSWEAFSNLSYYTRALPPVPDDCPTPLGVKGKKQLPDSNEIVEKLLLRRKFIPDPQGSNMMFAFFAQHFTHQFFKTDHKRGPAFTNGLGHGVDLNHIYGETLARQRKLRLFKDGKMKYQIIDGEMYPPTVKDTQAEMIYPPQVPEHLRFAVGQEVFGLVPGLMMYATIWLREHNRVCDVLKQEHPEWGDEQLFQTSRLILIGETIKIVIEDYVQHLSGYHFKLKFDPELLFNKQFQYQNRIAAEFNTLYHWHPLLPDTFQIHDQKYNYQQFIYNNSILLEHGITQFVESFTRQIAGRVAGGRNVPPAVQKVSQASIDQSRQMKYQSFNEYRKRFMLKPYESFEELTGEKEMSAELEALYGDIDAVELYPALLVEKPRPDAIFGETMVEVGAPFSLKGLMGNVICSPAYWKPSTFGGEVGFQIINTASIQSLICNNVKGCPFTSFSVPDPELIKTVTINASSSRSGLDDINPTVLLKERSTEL
PDE3A, sequence (Q14432 whole entry, species assumed): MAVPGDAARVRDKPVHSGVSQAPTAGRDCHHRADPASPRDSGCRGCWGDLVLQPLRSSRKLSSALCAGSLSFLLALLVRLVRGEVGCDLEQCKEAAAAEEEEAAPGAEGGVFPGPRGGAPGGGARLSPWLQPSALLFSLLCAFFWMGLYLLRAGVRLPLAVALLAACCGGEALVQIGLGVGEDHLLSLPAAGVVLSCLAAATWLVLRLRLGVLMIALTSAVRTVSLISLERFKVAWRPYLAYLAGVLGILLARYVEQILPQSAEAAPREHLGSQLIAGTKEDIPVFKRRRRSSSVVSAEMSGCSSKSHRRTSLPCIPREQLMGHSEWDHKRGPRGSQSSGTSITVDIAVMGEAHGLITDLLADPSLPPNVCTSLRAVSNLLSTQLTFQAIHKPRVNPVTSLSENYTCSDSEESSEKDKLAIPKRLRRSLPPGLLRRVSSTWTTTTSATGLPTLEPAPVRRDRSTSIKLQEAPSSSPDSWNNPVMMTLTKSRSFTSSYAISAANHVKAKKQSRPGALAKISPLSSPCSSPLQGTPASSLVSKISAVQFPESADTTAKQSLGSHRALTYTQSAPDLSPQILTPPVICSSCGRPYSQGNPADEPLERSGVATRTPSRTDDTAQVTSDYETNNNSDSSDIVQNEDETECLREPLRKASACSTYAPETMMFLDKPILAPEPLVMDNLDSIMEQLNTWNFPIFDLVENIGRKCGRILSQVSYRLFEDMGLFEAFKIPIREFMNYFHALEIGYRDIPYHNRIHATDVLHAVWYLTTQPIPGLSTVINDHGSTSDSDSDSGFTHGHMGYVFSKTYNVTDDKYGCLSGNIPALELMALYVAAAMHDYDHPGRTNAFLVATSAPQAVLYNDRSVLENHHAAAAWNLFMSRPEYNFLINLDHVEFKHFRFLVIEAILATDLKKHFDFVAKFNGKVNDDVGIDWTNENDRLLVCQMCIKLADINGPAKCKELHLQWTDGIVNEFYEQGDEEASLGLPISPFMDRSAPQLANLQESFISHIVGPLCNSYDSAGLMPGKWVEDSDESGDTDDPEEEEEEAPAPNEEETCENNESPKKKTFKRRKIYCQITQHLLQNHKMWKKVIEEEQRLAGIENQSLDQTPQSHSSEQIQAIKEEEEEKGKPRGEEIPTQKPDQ
PDE4D2, sequence (Q08499 303-809): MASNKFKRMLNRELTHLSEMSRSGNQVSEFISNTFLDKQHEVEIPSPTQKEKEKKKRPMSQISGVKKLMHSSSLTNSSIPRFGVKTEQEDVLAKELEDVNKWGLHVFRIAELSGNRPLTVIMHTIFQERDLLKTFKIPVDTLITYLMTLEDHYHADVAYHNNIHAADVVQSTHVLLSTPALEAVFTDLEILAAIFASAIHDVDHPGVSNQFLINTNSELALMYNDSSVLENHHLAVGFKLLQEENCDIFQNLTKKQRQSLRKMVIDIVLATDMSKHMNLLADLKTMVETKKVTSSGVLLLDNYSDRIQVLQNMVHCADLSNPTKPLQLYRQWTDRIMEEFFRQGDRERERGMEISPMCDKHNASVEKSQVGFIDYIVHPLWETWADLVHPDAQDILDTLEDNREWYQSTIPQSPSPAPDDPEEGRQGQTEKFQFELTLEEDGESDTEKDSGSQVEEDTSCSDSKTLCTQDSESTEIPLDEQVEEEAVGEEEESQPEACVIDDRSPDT

For C[N+]1([O-])CCN(C2=Nc3cc(Cl)ccc3Nc3ccccc32)CC1 [CNO, clozapine-N-oxide], the “times less potent than CLZ at hM4Di” value (hM4Di; ratio of EC50 values) was roughly 20 times, the “times less potent than Cmpd-21 at hM4Di” value (hM4Di; ratio of EC50 values) was “approximately 2.7 times” and the pEC50 (hM4Di; reduction of Ca2+ oscillation frequency, hM4Di-transduced rat primary neurons, Hill fit, read-out: half maximal effective concentration (EC50) at hM4Di) was 8.09. The pEC50 [1] was 5.20, the “behavioural changes in 5-CSRTT parameters” value (C57BL/6 J mice; CNO 3.5 or 10 mg/kg i.p., 10 min before test, vs vehicle) was “did not produce any significant behavioural changes in most 5-CSRTT parameters” and the “number of perseverative responses” value (C57BL/6 J mice; CNO highest dose (10 mg/kg) i.p.) was “not at the highest dose”. For the same compound, the “number of perseverative responses” value (C57BL/6 J mice; CNO intermediate dose (3.5 mg/kg) i.p., p = 0.0142) was “modest increase”, the “competitive inhibition of ligand binding” value (D2 dopamine receptor) was “over 50%” and the “competitive inhibition of ligand binding” value (M1 muscarinic receptor) was “over 50%”. For the same compound, the “competitive inhibition of ligand binding” value (M2 muscarinic receptor) was “over 50%”, the “competitive inhibition of ligand binding” value (M3 muscarinic receptor) was “over 50%” and the “competitive inhibition of ligand binding” value ([2]; 10 μM compound) was “over 50%”. The pKi ([2]; bound stated in discussion) was greater than 7.00, the inhibition (COX1) was less than 20% and the inhibition (COX2) was less than 20%. The inhibition (PDE3A) was less than 20%, the inhibition (PDE4D2) was less than 20% and the inhibition (AChE) was less than 20%. For the same compound, the “brain concentration by linear extrapolation” value ([3]; 10 mg/kg CNO) was no more than 70 nM, the “free (CSF) level by linear extrapolation” value ([3]; 10 mg/kg CNO) was no more than 30 nM and the “mean CNO concentration as % of the CLZ concentration in plasma” value ([3]; 15 min after i.p. 1 mg/kg CLZ) was “approximately 1.1%”. The “mean concentration in CSF” value [3, 4] was 11.2 nM, the “mean concentration in CSF” value [3, 5] was 10.8 nM and the “free level (CSF)” value [3, 6] was roughly 4.05 nM. For the same compound, the “detection at all other time points and in the other sample types” value ([3]; after i.p. 1 mg/kg CLZ, other than plasma at 15 min) was “no CNO was detectable”, the “mean concentration in brain” value [3, 4] was 23.8 nM and the “mean concentration in brain” value [3, 5] was 18.5 nM. For the same compound, the “mean concentration in brain” value [3, 6] was “could not be detected”.

— publication PMC6418145 (Scientific Reports, 2019)
